# In ChEMBL document CHEMBL1142674, “Amino acid ester prodrugs of the antiviral agent 2-bromo-5,6-dichloro-1-(beta-D-ribofuranosyl)benzimidazole as potential substrates of hPEPT1 transporter” (J Med Chem, 2005):
# Calls of active or inactive are those of the source. The rule behind the calls is not given here.
# Assays:
# Type in all cases: cell-based
# [1] = molecular target: T1, Solute carrier family 15 member 1 (Homo sapiens) (UniProt P46059); test: Relative inhibition of [3H]glycylsarcosine uptake in HeLa cells expressing human Intestinal peptide transporter PepT1 compared to BDCRB
# T1 sequence (whole entry): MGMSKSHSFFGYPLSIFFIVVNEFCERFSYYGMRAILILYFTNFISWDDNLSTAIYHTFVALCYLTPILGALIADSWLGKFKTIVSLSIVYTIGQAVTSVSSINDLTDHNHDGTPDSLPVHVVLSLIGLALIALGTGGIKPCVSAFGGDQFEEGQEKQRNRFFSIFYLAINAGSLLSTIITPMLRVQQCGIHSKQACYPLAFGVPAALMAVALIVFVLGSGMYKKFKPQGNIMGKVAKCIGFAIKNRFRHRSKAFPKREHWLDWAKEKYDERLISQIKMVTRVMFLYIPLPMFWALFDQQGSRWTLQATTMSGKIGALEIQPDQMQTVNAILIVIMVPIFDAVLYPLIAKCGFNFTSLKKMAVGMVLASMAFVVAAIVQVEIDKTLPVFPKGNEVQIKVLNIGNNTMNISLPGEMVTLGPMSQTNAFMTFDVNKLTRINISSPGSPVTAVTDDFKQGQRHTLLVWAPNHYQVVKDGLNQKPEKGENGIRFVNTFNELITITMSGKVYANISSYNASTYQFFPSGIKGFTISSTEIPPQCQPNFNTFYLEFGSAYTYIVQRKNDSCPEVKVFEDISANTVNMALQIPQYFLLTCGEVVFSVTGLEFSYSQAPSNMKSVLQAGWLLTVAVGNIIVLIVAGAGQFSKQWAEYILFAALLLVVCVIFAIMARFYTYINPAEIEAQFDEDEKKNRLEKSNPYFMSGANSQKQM
# [2] = molecular target: T2, Solute carrier family 15 member 1 (Homo sapiens, UniProt P46059); test: Inhibitory concentration against [3H]glycylsarcosine uptake in HeLa cells expressing human Intestinal peptide transporter PepT1
# T2 sequence (P46059 whole entry): T1 sequence (whole entry)
# [3] = molecular target: T1, Solute carrier family 15 member 1 (Homo sapiens); test: Relative inhibition of [3H]glycylsarcosine uptake in HeLa cells expressing human Intestinal peptide transporter PepT1 compared to BDCRB; na=Not applicable
Structure (SMILES),Ratio [1],IC50 [2] [µM],Ratio [3]
N[C@@H](Cc1ccccc1)C(=O)OC[C@H]1OC(n2c(Br)nc3cc(Cl)c(Cl)cc32)[C@H](O)[C@@H]1O (stereo partly drawn),2.1,218,–
N[C@H](CC(=O)O)C(=O)OC[C@H]1OC(n2c(Br)nc3cc(Cl)c(Cl)cc32)[C@H](O)[C@@H]1O (stereo partly drawn),1.1,421,–
CC(C)[C@H](N)C(=O)OC[C@H]1OC(n2c(Br)nc3cc(Cl)c(Cl)cc32)[C@H](O)[C@@H]1O (stereo partly drawn),2.7,166,–
CC(C)[C@H](N)C(=O)OCCOCn1cnc2c(=O)nc(N)[nH]c21,–,–,inactive
N[C@@H](Cc1ccc(Cl)cc1)C(=O)OC[C@H]1OC(n2c(Br)nc3cc(Cl)c(Cl)cc32)[C@H](O)[C@@H]1O (stereo partly drawn),3.1,142,–
N[C@H](Cc1ccccc1)C(=O)OC[C@H]1OC(n2c(Br)nc3cc(Cl)c(Cl)cc32)[C@H](O)[C@@H]1O (stereo partly drawn),1.6,282,–
CC(C)[C@@H](N)C(=O)OC[C@H]1OC(n2c(Br)nc3cc(Cl)c(Cl)cc32)[C@H](O)[C@@H]1O (stereo partly drawn),1.3,342,–
COc1ccc(C[C@H](N)C(=O)OC[C@H]2OC(n3c(Br)nc4cc(Cl)c(Cl)cc43)[C@H](O)[C@@H]2O)cc1 (stereo partly drawn),1.5,300,–
O=C(OC[C@H]1OC(n2c(Br)nc3cc(Cl)c(Cl)cc32)[C@H](O)[C@@H]1O)[C@@H]1CCCN1 (stereo partly drawn),0.8,537,–
N[C@@H](CC(=O)O)C(=O)OC[C@H]1OC(n2c(Br)nc3cc(Cl)c(Cl)cc32)[C@H](O)[C@@H]1O (stereo partly drawn),1.7,260,–
CCOc1ccc(C[C@H](N)C(=O)OC[C@H]2OC(n3c(Br)nc4cc(Cl)c(Cl)cc43)[C@H](O)[C@@H]2O)cc1 (stereo partly drawn),4.7,96,–
NCCCC[C@H](N)C(=O)OC[C@H]1OC(n2c(Br)nc3cc(Cl)c(Cl)cc32)[C@H](O)[C@@H]1O (stereo partly drawn),0.9,477,–
CC(C)[C@H](N)C(=O)OCCOCn1cnc2c(=O)[nH]c(N)nc21 [VALACYCLOVIR],–,431,–
OC[C@H]1O[C@H](n2c(Br)nc3cc(Cl)c(Cl)cc32)[C@@H](O)[C@H]1O,–,447,inactive
CCC(C)[C@H](N)C(=O)OC[C@H]1O[C@@H](n2c(Br)nc3cc(Cl)c(Cl)cc32)[C@H](O)[C@@H]1O (stereo partly drawn),3.7,121,–
